# According to patent US10758607B2, “Respiratory syncytial virus having cleavage-resistant G protein and related materials and methods” (The Research Institute at Nationwide Children's Hospital, priority 2015, dated 2020):
# Entries after “also recorded” stand apart in the source; their conditions may differ. Where a SMILES comes first, the peptide text is derived from it.
# How the values were obtained:
# [1] = system: RSV G protein cleavage in Vero cells; assay: Cell-surface RSV G protein cleavage in rgRSV-infected cells treated with protease inhibitors (biotinylation, immunoblot with mAb L9); assay type: cell-based; conditions: 24 hpi
# Experimental: To elucidate the class of protease responsible for G protein cleavage in Vero cells, cells were treated with increasing concentrations of protease inhibitors after inoculating with recombinant green fluorescent protein expressing RSV (rgRSV). Cells were incubated with rgRSV for 2 h with tipping at 37° C. before replacing inoculum with fresh cell culture medium. Drugs were added at different times post infection. In each case, uninfected, no drug, and vehicle (at the highest concentration used) were included in all experiments as controls. In all experiments at 24 hpi, cell surface proteins were biotinylated, cells lysed and equivalent amounts of protein from each sample were mixed with streptavidin beads.
# Aprotinin, a serine protease inhibitor, leupeptin, a serine/cysteine protease inhibitor; or E-64, a cysteine protease inhibitor were added to the cell culture media (3.125 to 50 μg/ml) from 2-24 hpi. The most likely proteins to be incorporated into the virions are cell surface proteins, so the cell surfaced was biotinylated, proteins isolated from lysed cells with streptavidin beads, and immunobloted with L9, a mAb to the G protein, as a probe (FIG. 1A). In the untreated and vehicle treated samples most of the cell surface G protein was cleaved (˜55 kDa), leaving only a small portion of full length (˜90 kDa) G protein. […] Since both leupeptin and E64 block the activity of cysteine proteases, the protease responsible for cleavage of the G protein in Vero cells is a cysteine protease.
# To narrow the field of cysteine proteases, cells were treated at 6 hpi with a more specific cysteine protease inhibitor, ALLM (0.1 to 100 μM).
# RSV-infected HeLa and Vero cells were treated with a cathepsin B inhibitor, CA-074 (0.1 to 100 μM), or a cathepsin L inhibitor, cathepsin L inhibitor III (0.1 to 100 μM) 6 hpi.
# Cathepsin L is a protease present primarily in the interior of the lysosome and is optimally active at acidic pH. Vero cells expressing the G protein were treated with chloroquine to raise the pH of the lysosome. […] To generate FIG. 4C, cells were inoculated with RSV or mock inoculated. 6 hpi the cells were treated with increasing concentrations of chloroquine. 24 hpi cells were biotinylated and G protein assayed
# HeLa and Vero cells were rgRSV (MOI: 1) or mock inoculated. 2 hpi the inoculum was replaced with fresh complete medium, and 4 hpi cells the medium was changed again to complete medium with 2-fold dilutions of these protease inhibitors (Sigma-Aldrich, St. Louis, Mo.), dissolved in water: Aprotinin (3.125 to 50 μg/ml); Leupeptin (6.25 to 100 μg/ml); E-64 (6.25 to 100 μg/ml); or equal volumes of water in medium. In other experiments, cells were treated at 6 hpi with: 10-fold dilutions (0.1 to 100 μM) of: Cathepsin inhibitor I (Calbiochem); ALLM (Santa Cruz, Dallas, Tex.); Chloroquine diphosphate salt (Sigma Aldrich) or equivalent volumes of vehicle (water); CA-074 (Calbiochem); Cathepsin L inhibitor III (Calbiochem); or an equal volume of vehicle (DMSO) in medium.
# At 24 hpi cells were biotinylated with Ez-link Sulfo-NHS-LC-Biotin (Thermo Fisher). Cells were lysed with lysis buffer containing 150 mM NaCl, 1% Triton X-100, 50 mM Tris, 0.1% SDS, and 1× Halt protease cocktail inhibitor (Thermo Fisher). Proteins were quantified using BCA protein assay kit (Pierce, Waltham, Mass.), and equal amounts of protein were added to high capacity streptavidin agarose beads (Thermo Fisher). The mixtures were rotated for 1 h at 4° C., the beads were pelleted and washed with lysis buffer (without protease cocktail inhibitor), NuPage LDS sample buffer was added, and boiled for 5 min, separated by NuPAGE Novex 4-12% bis-tris protein gels and transferred to nitrocellulose in an iBlot transfer stack, using the iBlot transferring system (Life Technologies) for immunoblot analysis. […]
# [2] = system: RSV G protein cleavage in Vero cells; assay: Cleavage of mutant G proteins transiently expressed in Vero cells (immunoblot); assay type: cell-based; conditions: for resistance to cleavage of alanine substitution G protein mutants: 24 hours post-transfection; for cleavage of G protein deletion mutants: 24 h post-transfection, vs wt G protein
# Experimental: The G gene in the region of amino acid 210 was modified by deleting stretches of amino acids in this region (200-211, 204-213, 206-215, 208-217, or 209-213). […] Most of the mutants almost completely ablate cleavage. They all share amino acids 208-211. However, A206-210 and A206-215, both of which bring together amino acids that can also serve as a cathepsin L cleavage site. For FIG. 6B, the mutated G protein genes were transiently expressed in Vero cells. 24 h post-transfection cells were harvested, lysed and proteins were separated by SDS-PAGE, blotted and probed with mAb to the G protein.
# To identify which amino acids are important for cleavage, individual amino acids in and around this region were changed to alanine. These mutant G proteins were transiently expressed in Vero cells and assessed by immunoblot (FIG. 6C). For FIG. 6C, the mutated G protein genes were transiently expressed in Vero cells. 24 hours post-transfection cells were harvested, lysed and proteins were separated by SDS-PAGE, blotted and probed with mAb to the G protein.
# The strain A2 G protein plasmid was mutagenized using synthetic double strand gBlock DNA (Integrated DNA Technologies). Van91I (Thermo Fisher) and Xho I (New England Biolabs) were used to digest plasmid and gBlock. Doubly-digested plasmid was isolated by agarose gel electrophoresis. Digested gBlock and eluted plasmid DNAs were ligated with T4 DNA ligase (Promega, Madison, Wis.), and transformed into One Shot MachI-T1 chemically competent bacteria (Life Technologies). Plasmids were extracted using HiSpeed or Plasmid Plus Maxi kits (Qiagen).
# Wild type G or frG proteins were expressed in HeLa or Vero cells following plasmid transfection with FuGene HD (Promega) or Lipofectamine LTX (Life Technologies), respectively, in medium containing 2% FBS. In frG experiments, medium was collected and concentrated using Ultracel-10 K centrifugal filters (EMD Millipore, Billerica, Mass.). For other transfection experiments, Vero cells were transfected using Lipofectamine 3000 (Life Technologies) in medium containing 10% FBS. For all transfection experiments, cells were lysed and protein quantified by BCA assay. Equivalent HeLa or Vero cell lysate protein and equivalent volumes of concentrated proteins from the medium were analyzed by immunoblotting.
# [3] = rgRSV-infected Vero cells, 6.24 to 100 μg/ml
molecule,measurement,setting,value
CCCNC(=O)[C@H]1O[C@@H]1C(=O)N[C@H](C(=O)N1CCC[C@H]1C(=O)O)[C@@H](C)CC [CA-074],G protein cleavage (cell surface G protein),"[1]; RSV-infected HeLa and Vero cells, 0.1 to 100 μM at 6 hpi",RSV G protein cleavage in the presence; also recorded: did not change this pattern
CC(=O)N[C@@H](CC(C)C)C(=O)N[C@@H](CC(C)C)C(=O)N[C@H](C=O)CCCNC(=N)N [leupeptin],G protein cleavage (cell surface G protein),[1]; [3],"did, in a dose dependent manner"
same,G protein cleavage (cell surface G protein),"[1]; rgRSV-infected Vero cells, 6.24 to 100 μg/ml, listed as Leupeptin",prevention of cleavage
D214: RSV strain A2 G protein with alanine substitution at D214,resistance to cleavage of alanine substitution G protein mutants,[2],partially to nearly completely resistant to cleavage
Δ206-210,cleavage of G protein deletion mutants,[2],inhibit but do not abolished protein cleavage
CCN(CC)CCCC(C)Nc1ccnc2cc(Cl)ccc12 (stereo not drawn) [chloroquine],G protein on the cell surface (cleaved vs full length),"[1]; Vero cells, increasing concentrations of chloroquine from 6 hpi",primarily full length G protein; also recorded: decreased cleavage
CSCC[C@@H](C=O)NC(=O)[C@H](CC(C)C)NC(=O)[C@H](CC(C)C)NC(C)=O [ALLM] (Ac-Leu-Leu-Met-aldehyde),G protein cleavage (cell surface G protein),"[1]; rgRSV-infected Vero cells, treated at 6 hpi, 0.1 to 100 μM",prevention of cleavage; also recorded: inhibited G protein cleavage
Aprotinin,G protein cleavage (cell surface G protein),"[1]; rgRSV-infected Vero cells, 3.125 to 50 μg/ml",did not prevent G protein cleavage
K212: RSV strain A2 G protein with alanine substitution at K212,resistance to cleavage of alanine substitution G protein mutants,[2],partially to nearly completely resistant to cleavage
206-215: RSV G protein with amino acids 206-215 deleted,cleavage of G protein deletion mutants,[2],cleaved less efficiently than the wt G protein
same,cleavage of G protein deletion mutants,[2]; listed as Δ206-215,inhibit but do not abolished protein cleavage
"CC(C)C[C@H](NC(=O)[C@H]1O[C@@H]1C(=O)O)C(=O)NCCCCN=C(N)N [E64, E-64]",G protein cleavage (cell surface G protein),[1]; [3],"did, in a dose dependent manner"
same,G protein cleavage (cell surface G protein),"[1]; rgRSV-infected Vero cells, 6.24 to 100 μg/ml, listed as E-64",prevention of cleavage
K209: RSV strain A2 G protein with alanine substitution at K209,efficiency at inhibiting cleavage (rank among alanine substitutions),[2],second most efficient
same,resistance to cleavage of alanine substitution G protein mutants,[2],partially to nearly completely resistant to cleavage
